Experimental data taken from patent US20250332265A1, “PSMA TARGETED CONJUGATE COMPOUNDS AND USES THEREOF” (priority 2021, published 2025).

Molecular target: T1, PSMA (Homo sapiens, UniProt Q04609)
T1 construct: expressed in transfected cells; host or cells: PC3pip cells (PC3 retrovirally transduced with PSMA), from Dr. Michel Sadelain, MSKCC
Assay: Competition binding studies, Example 2
Description: PC3pip cells ([…]) was suspended in 200 μL of 50 mM Tris buffer, pH 7.5. The cells were incubated at 37° C. with different concentrations of PSMA-1-MMAE-IR700 or ZJ24 in the presence of 12 nM of 3H-ZJ24 for 1 h. The cells were then washed 3 times with cold PBS and cell-associated radioactivity was measured by scintillation counting. The concentration required to inhibit 50% of the binding (IC50) was determined by GraphPad Prism 3.0. Studies were performed in triplicate.

T1 sequence (Q04609 whole entry): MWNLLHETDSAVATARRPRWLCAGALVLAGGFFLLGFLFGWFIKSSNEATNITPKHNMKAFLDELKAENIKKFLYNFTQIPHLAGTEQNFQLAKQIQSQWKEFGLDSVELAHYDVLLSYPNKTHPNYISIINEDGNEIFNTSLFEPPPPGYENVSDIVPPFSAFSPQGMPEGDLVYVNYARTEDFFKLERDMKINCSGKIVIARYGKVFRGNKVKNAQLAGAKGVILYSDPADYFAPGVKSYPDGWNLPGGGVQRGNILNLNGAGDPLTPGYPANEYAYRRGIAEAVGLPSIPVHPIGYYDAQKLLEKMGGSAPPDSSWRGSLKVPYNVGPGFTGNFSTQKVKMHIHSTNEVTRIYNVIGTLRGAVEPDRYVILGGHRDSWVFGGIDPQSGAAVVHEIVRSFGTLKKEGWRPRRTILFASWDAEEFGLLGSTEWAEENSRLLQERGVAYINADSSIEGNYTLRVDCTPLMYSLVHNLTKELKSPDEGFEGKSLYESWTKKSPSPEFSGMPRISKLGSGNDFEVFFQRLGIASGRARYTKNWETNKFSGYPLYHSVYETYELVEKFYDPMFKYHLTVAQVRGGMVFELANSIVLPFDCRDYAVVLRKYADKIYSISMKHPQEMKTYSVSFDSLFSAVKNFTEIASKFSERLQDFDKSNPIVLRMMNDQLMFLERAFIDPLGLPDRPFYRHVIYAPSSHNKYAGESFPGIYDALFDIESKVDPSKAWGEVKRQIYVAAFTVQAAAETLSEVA

CC[C@H](C)[C@@H]([C@@H](CC(=O)N1CCC[C@H]1[C@H](OC)[C@@H](C)C(=O)N[C@H](C)[C@@H](O)c1ccccc1)OC)N(C)C(=O)[C@@H](NC(=O)[C@H](C(C)C)N(C)C(=O)OCc1ccc(NC(=O)[C@H](CCCNC(N)=O)NC(=O)[C@@H](NC(=O)CCCCCN2C(=O)CC(SC[C@H](NC(=O)[C@H](CCC(=O)O)NC(=O)[C@H](CCC(=O)O)NC(=O)[C@H](CCC(=O)O)NC(=O)CCCCCNC(=O)[C@H]3CC[C@H](CNC(=O)CC[C@H](NC(=O)N[C@@H](CCC(=O)O)C(=O)O)C(=O)O)CC3)C(=O)NCCCCCC(=O)N[C@@H](CCCCNC(=O)CCCCCNC(=O)OCCCOc3cccc4c5n6c(c34)=NC3=NC(=Nc4c7ccccc7c(n4[Si]6(O[Si](C)(C)CCC[N+](CCCS(=O)(=O)[O-])(CCCS(=O)(=O)O)CCCS(=O)(=O)O)O[Si](C)(C)CCC[N+](CCCS(=O)(=O)[O-])(CCCS(=O)(=O)O)CCCS(=O)(=O)O)N=C4N=C(N=5)c5ccccc54)c4ccccc43)C(N)=O)C2=O)C(C)C)cc1)C(C)C (stereo partly shown) [PSMA-1-MMAE-IR700]
binding relative to ZJ24: 4.4 fold
